According to US20100093642A1, “NOVEL POLYPEPTIDES” (priority 2006, published 2010):
In brackets after ≈: the same amount, converted by molar mass. Residues, ends and D or L forms follow the SMILES beside them. No end group written: not given here.

How the values were obtained:
[1] = system: TNF-α; assay: Inhibition of LPS induced TNF-α response in THP-1 cells (ELISA); format: cell-based, human; settings: Ratio TC50 (THP-1)/EC50 (anti-TNFα)
Procedure: FIG. 12. Antiinnflammatory response measured as inhibition of tumor necrosis factor alpha (TNF-α) response in THP-1 cells after stimulation with LPS. THP-1 cells (1×10^6 cells/ml) were treated with P17 derivates in different concentrations for 1 hour, and subsequently stimulated with 100 ng/ml LPS for 6 hours. LPS was used as control for induction of TNF-α. (set as 100% response), RPMI media was used as negative (non-stimulated) control, and cycloheximide (Chx, 10 μg/ml) was used as a an inhibitory control for LPS induced TNF-α. The data presented are the average of two parallells. (A) The effect of the peptides P17 HC and P17 HC (1-20). (B) The effect of the peptides P17 HC (11-20) and P17 HC-Br.
The THP-1 cells (ATCC, TIB-202) were maintained in suspension in RPMI-1640 medium with 25 mM HEPES and 2 mM Glutamax I supplemented with 10% FBS (growth medium) in a humidified atmosphere of 5% CO2 at 37° C. Cells to be used in the assay were grown to a density of 8×10^5-1×10^6 cells/ml. The cells were centrifuged for 7 min at 200 g and the cell pellet was resuspended to a concentration of 10^6 cells/ml in RPMI-1640 with 10% FBS.
To allow examination of antiinflammatory effects of the peptides on basal and stimulated cytokine production, peptide-treated macrophages were cultured in the presence of LPS and the levels of TNF-α were measured. The primary screening was based on a mammalian cell line; the human THP-1 line. This line is of monocyte/macrophage origin and responds to various stimuli by increased production of cytokines, like TNF-α and the IL-1β, (Wang et al. 2000). To induce monocyte-macrophage differentiation, THP-1 cells were cultured in 96-well culture plates (10^6 cells/well) in a volume of 100 μl RPMI 1640 medium, containing 50 ng/ml PMA (which is known to induce the maturation of monocytes) and incubated in a humidified atmosphere of 5% CO2, at 37° C. for 48 hours. The medium was then removed and the cells were washed with PBS, added 100 μl fresh medium (without PMA) and incubated for another 24 hours. Medium was removed and the adherent macrophages were treated with 100 μl of peptide solution (concentrations ranging from 0 to 400 μg/ml), diluted in RPMI-1640 medium with 25 mM HEPES and 2 mM Glutamax I, but without […] (assay medium). After incubation at 37° C. for 1 hour, the cells were added LPS (0.1 μg/ml) and further incubated for 6 hours. […] TNF-α concentrations were quantified by the Human TNF-α ELISA MAX kit (BioLegend), according to the manufacturer's instructions. Duplicate readings for each standard, control and sample were recorded. The average absorbance for each set of standards, controls, and samples was calculated using a standard curve. Concentrations were determined by extrapolation on the standard curve.

[2] = system: Staphylococcus aureus, ATCC 9144; format: cell-based; settings: non-clinical isolate; 37° C.; 3×10^6 cells per ml
Procedure: (§1) The antibacterial activities of the different peptides were determined by continuous monitoring of bacterial growth with a Bioscreen C microbiology reader (Labsystems Oy, Helsinki, Finland). The test was performed in 100-well flat-bottomed honeycomb plates, in which 50 μl of test fractions were incubated with 50 μl of a suspension of an actively growing culture of bacteria diluted in Mueller Hinton medium to a starting concentration of 3×10^4 cells per ml. The Gram-negative bacteria, Listonella (Vibrio) anguillarum, serotype O2 (FT 1801, a fish pathogenic strain), Pseudomonas aeruginosa and E. coli (ATCC 25922), and the Gram-positive bacteria, C. glutamicum (ATCC 13032) and S. aureus (ATCC 9144), were chosen as test bacteria. The growth chamber was maintained at either 20 or 37° C. during the incubation period. The absorbance was measured at 2 h intervals for 48 h by a turbidometric method with vertical light photometry and a wide band filter (420-580 nm), which is more insensitive to color change in the sample compared to single wavelength detection. Antibacterial activity was determined when the optical density (OD) of the growth control (bacteria plus water) reached an absorbance of 0.3-0.4. Fractions were regarded as active when the OD was less than 50% of the growth control. Polymyxin B (Sigma, St. Louis, Mo., USA), Lactoferricin B, Cecropin P1 and Hyalophora cecropia Cecropin B were used as reference.
(§2) The antimicrobial molecules were also tested against drug resistant clinical isolates, such as the commonly encountered multi-resistant human pathogen S. aureus (MRSA) K15-64 and the glycopeptide (vancomycin)-resistant Enterococccus faecium (GREF) K9-28. The non-clinical isolates Escherichia coli (ATCC 25922), Pseudomonas aeruginosa (ATCC 27853), Corynebacterium glutamicum (ATCC 13032), and Staphylococcus aureus (ATCC 9144) were also tested for comparison. Serial dilutions of synthetic peptides were made in double distilled water and tested according to the method described above. However, in these experiments the starting concentration of bacteria were 3×10^6 cells per ml and the temperature in the growth chamber was 37° C. Polymyxin B was used as positive control for the Gram-negative bacteria.

[3] = system: Klebsiella K15-72; format: cell-based; settings: clinical isolate; 37° C.; 3×10^6 cells per ml
Procedure: as §1, §2

[4] = system: Bacillus spp K13-61; format: cell-based; settings: clinical isolate; 37° C.; 3×10^6 cells per ml
Procedure: as §1, §2

[5] = system: Enterococcus faecium (GREF), K9-28; format: cell-based; settings: vancomycin-resistant clinical isolate; 37° C.; 3×10^6 cells per ml
Procedure: as §1, §2

[6] = system: Salmonella K14-40; format: cell-based; settings: clinical isolate; 37° C.; 3×10^6 cells per ml
Procedure: as §1, §2

[7] = system: Acinetobacter baumannilii, K15-9; format: cell-based; settings: clinical isolate; 37° C.; 3×10^6 cells per ml
Procedure: as §1, §2

[8] = system: Escherichia coli, K15-58; format: cell-based; settings: clinical isolate; 37° C.; 3×10^6 cells per ml
Procedure: as §1, §2

[9] = system: Staphylococcus aureus (MRSA), K15-64; format: cell-based; settings: multi-resistant clinical isolate; 37° C.; 3×10^6 cells per ml
Procedure: as §1, §2

[10] = system: Citrobacter freundii, K15-75; format: cell-based; settings: clinical isolate; 37° C.; 3×10^6 cells per ml
Procedure: as §1, §2

[11] = system: Corynebacterium glutamicum, ATCC 13032; format: cell-based; settings: non-clinical isolate; 37° C.; 3×10^6 cells per ml
Procedure: as §1, §2

[12] = system: Pseudomonas K15-60; format: cell-based
Procedure: as §1, §2

| Compound | Therapeutic index TC50/EC50 [1] | Minimal inhibitory concentration, Staphylococcus aureus, ATCC 9144 [2] | Minimal inhibitory concentration, Klebsiella K15-72 [3] | Minimal inhibitory concentration, Bacillus spp K13-61 [4] | Minimal inhibitory concentration, Enterococcus faecium (GREF), K9-28 [5] | Minimal inhibitory concentration, Salmonella K14-40 [6] | Minimal inhibitory concentration, Acinetobacter baumannilii, K15-9 [7] | Minimal inhibitory concentration, Escherichia coli, K15-58 [8] | Minimal inhibitory concentration, Staphylococcus aureus (MRSA), K15-64 [9] | Minimal inhibitory concentration, Citrobacter freundii, K15-75 [10] | Minimal inhibitory concentration, Corynebacterium glutamicum, ATCC 13032 [11] | Minimal inhibitory concentration, Pseudomonas K15-60 [12] |
| --- | --- | --- | --- | --- | --- | --- | --- | --- | --- | --- | --- | --- |
| CC[C@H](C)[C@H](NC(=O)CNC(=O)[C@H](CO)NC(=O)[C@H](CCCCN)NC(=O)[C@@H](NC(=O)[C@H](C)NC(=O)[C@H](Cc1c[nH]cn1)NC(=O)[C@H](CO)NC(=O)[C@@H](NC(=O)[C@H](CCCCN)NC(=O)[C@H](Cc1c[nH]cn1)NC(=O)[C@H](Cc1ccccc1)NC(=O)[C@@H](NC(=O)[C@H](CCCCN)NC(=O)[C@H](CCCCN)NC(=O)[C@H](Cc1ccccc1)NC(=O)C(Cc1c[nH]c2ccc(Br)cc12)NC(=O)CN)[C@@H](C)O)C(C)C)C(C)C)C(=O)N[C@@H](Cc1c[nH]cn1)C(=O)N[C@@H](C)C(=O)NCC(=O)N[C@@H](CCC(N)=O)C(=O)N[C@@H](CCCNC(=N)N)C(=O)NCC(=O)N[C@@H](CS)C(=O)N[C@@H](CO)C(=O)N[C@@H](C)C(=O)N[C@@H](CC(C)C)C(=O)NCC(=O)N[C@@H](Cc1ccccc1)C(=O)O (stereo partly drawn) [P17 HC-Br] (HELM PEPTIDE1{G.[O=C(C(Cc1c[nH]c2ccc(Br)cc12)N[*:1])[*:2]].F.K.K.T.F.H.K.V.S.H.A.V.K.S.G.I.H.A.G.Q.R.G.C.S.A.L.G.F}$$$$V2.0) | 46.5 | 12.5 µM (≈ 41.5 µg/mL) | 3.12 µM (≈ 10.4 µg/mL) | 6.25 µM (≈ 20.8 µg/mL) | 0.78 µM (≈ 2.59 µg/mL) | 6.25 µM (≈ 20.8 µg/mL) | 1.56 µM (≈ 5.18 µg/mL) | 3.12 µM (≈ 10.4 µg/mL) | 6.25 µM (≈ 20.8 µg/mL) | 1.56 µM (≈ 5.18 µg/mL) | 0.78 µM (≈ 2.59 µg/mL) | 3.12 µM (≈ 10.4 µg/mL) |
| GWFKKTFHKVSHAVKSGIHA [P17 HC (1-20)] | >17.4 | >50 µM | >50 µM | 50 µM | 6.25 µM | 50 µM | 6.25 µM | 6.25 µM | >50 µM | 12.5 µM | 3.12 µM | 12.5 µM |
| GWFKKTFHKVSHAVKSGIHAGQRGCSALGF [P17 HC] | 13.6 | 12.5 µM | 3.12 µM | 6.25 µM | 0.39 µM | 6.25 µM | 3.12 µM | 1.56 µM | 6.25 µM | 0.78 µM | 0.78 µM | 3.12 µM |
